Experimental data as given in ChEMBL document CHEMBL3751787, “Novel chromenedione derivatives displaying inhibition of protein tyrosine phosphatase 1B (PTP1B) from Flemingia philippinensis” (Bioorg Med Chem Lett, 2016).

Columns and labels:
[1] = molecular target: T1, Tyrosine-protein phosphatase non-receptor type 1 (Homo sapiens, UniProt P18031); test: Inhibition of human recombinant PTP1B using p-nitrophenyl phosphate as substrate by spectrophotometric analysis
T1 sequence (P18031 whole entry): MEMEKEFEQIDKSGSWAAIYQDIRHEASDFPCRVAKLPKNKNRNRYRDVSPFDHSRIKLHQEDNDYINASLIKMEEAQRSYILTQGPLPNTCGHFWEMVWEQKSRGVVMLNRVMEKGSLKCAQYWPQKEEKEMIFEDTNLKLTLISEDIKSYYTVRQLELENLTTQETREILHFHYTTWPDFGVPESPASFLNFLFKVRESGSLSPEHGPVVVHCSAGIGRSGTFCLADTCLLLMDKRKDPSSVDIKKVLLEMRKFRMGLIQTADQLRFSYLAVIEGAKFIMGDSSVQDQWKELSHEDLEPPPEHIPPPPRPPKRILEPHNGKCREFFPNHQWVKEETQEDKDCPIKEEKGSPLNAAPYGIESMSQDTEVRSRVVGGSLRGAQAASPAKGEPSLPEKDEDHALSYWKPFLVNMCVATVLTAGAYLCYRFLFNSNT

[2] = molecular target: T1, Tyrosine-protein phosphatase non-receptor type 1; test: Non-competitive inhibition of human recombinant PTP1B using p-nitrophenyl phosphate as substrate by spectrophotometry based Lineweaver-Burk plot
[3] = molecular target: T1, Tyrosine-protein phosphatase non-receptor type 1; test: Competitive inhibition of human recombinant PTP1B using p-nitrophenyl phosphate as substrate by spectrophotometry based Lineweaver-Burk plot

Structure (SMILES) | IC50 [1] [µM] | Ki [2] [µM] | Ki [3] [µM]
CC(C)=CCc1c(O)c(CC=C(C)C)c2occ(-c3ccc(O)c(O)c3)c(=O)c2c1O | 2.4 | 2.5 | 
COc1ccc(CCC(=O)C2=C(O)C(CC=C(C)C)=C3OC(C)(C)C=CC3(CC=C(C)C)C2=O)cc1O (stereo unspecified) | 29.4 |  | 17.6
COc1ccc(CC/C(O)=C2\C(=O)C(CC=C(C)C)=C3OC(C)(C)C=CC3(CC=C(C)C)C2=O)cc1O (stereo unspecified) | 20.2 |  | 12.3
COc1ccc(CCC(=O)C2=C(O)C(CC=C(C)C)=C3OC(C)(C)C=CC3(CC=C(C)C)C2=O)cc1 (stereo unspecified) | 6.5 |  | 3.4
CC(C)=CCc1c(O)c(CC=C(C)C)c2occ(-c3ccc(O)cc3)c(=O)c2c1O | 9.3 | 9.6 | 
CC(C)=CCc1c2c(c(O)c3c(=O)c(-c4ccc(O)c(O)c4)coc13)C=CC(C)(C)O2 [AURICULASIN] | 3.6 | 4.4 | 
COc1cc(-c2coc3c(CC=C(C)C)c(O)c(CC=C(C)C)c(O)c3c2=O)ccc1O [FLEMINGSIN] | 17.4 | 19.2 | 
CC(C)=CCc1c2c(c3occ(-c4ccc(O)cc4)c(=O)c3c1O)C=CC(C)(C)O2 [OSAJIN] | 23.6 | 29.9 | 
